Patent US20050090522A1 (priority 2001, published 2005)
Where two headings read alike, the source gives them in different places.

How the values were obtained:
HIV-1 = HIV-1 single-round infectious luciferase reporter virus (pseudotype) assay in HeLa CD4 CCR5 cells; format: cell-based
Summary of the method: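 Reporter pseudovirus produced in 293 cells infected HeLa cells expressing CD4/CCR5 at MOI ~0.01, with compound present at <10 μM final. Infection was quantified as luciferase luminescence after 72 h.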

HeLa cells = assay: Cytotoxicity assay in HeLa cells (MTT dye reduction, CC50)
Description: • Virus production—Human embryonic Kidney cell line, 293, propagated in Dulbecco's Modified Eagle Medium (Life Technologies, Gaithersburg, Md.) containing 10% fetal Bovine serum (FBS, Sigma, St. Louis, Mo.). • Virus infection—Human epithelial cell line, HeLa, expressing the HIV-1 receptors CD4 and CCR^5 was propagated in Dulbecco's Modified Eagle Medium (Life Technologies, Gaithersburg, Md.) containing 10% fetal Bovine serum (FBS, Sigma, St. Louis, Mo.) and supplemented with 0.2 mg/mL Geneticin (Life Technologies, Gaithersburg, Md.) and 0.4 mg/mL Zeocin (Invitrogen, Carlsbad, Calif.). […] Transfections were performed using lipofectAMINE PLUS reagent as described by the manufacturer (Life Technologies, Gaithersburg, Md.). Experiment • 1. Compound was added to HeLa CD4 CCR5 cells plated in 96 well plates at a cell density of 5×10^4 cells per well in 100 μl Dulbecco's Modified Eagle Medium containing 10% fetal Bovine serum at a concentration of […]. • 2. 100 μl of single-round infectious reporter virus in Dulbecco's Modified Eagle Medium was then added to the plated cells and compound at an approximate multiplicity of infection (MOI) of 0.01, resulting in a final volume of 200 μl per well and a final compound concentration of <10 μM. • 3. Samples were harvested 72 h after infection. • 4. Viral infection was monitored by measuring luciferase expression from viral DNA in the infected cells using a luciferase reporter gene assay kit (Roche Molecular Biochemicals, Indianapolis, Ind.). Infected cell supernatants were removed and 50 μl of Dulbecco's Modified Eagle Medium (without phenol red) and 50 μl of luciferase assay reagent reconstituted as described by the manufacturer (Roche Molecular Biochemicals, Indianapolis, Ind.) was added per well. Luciferase activity was then quantified by measuring luminescence using a Wallac microbeta scintillation counter. • 5. […] An EC50 provides a method for comparing the antiviral potency of the compounds of this invention. The effective concentration for fifty percent inhibition (EC50) was calculated with the Microsoft Excel Xlfit curve fitting software. For each compound, curves were generated from percent inhibition calculated at 10 different concentrations by using a four paramenter logistic model (model 205). Table 1 is the key for the data in Tables 2-4. Cytoxicity assays were conducted with the same HeLa using methodology well known in the art.
For accuracy, the determined measure of viral inhibition is an EC50; but the minimum plasma concentrations which should be maintained in a patient is generally believed to be at least four or five fold higher. […] Lower is better. • 4) Estimating potential exposure in man by measuring parameters such as AUC and rate of clearance by oral and iv dosing in rats. High exposure and low clearance was desired.

[1] = Human immunodeficiency virus 1, HeLa-CD4/CCR5, read-out: EC50 Group from Table 1, Table 4, HeLa CD4 CCR5 cells, single-round luciferase reporter virus
[2] = Human immunodeficiency virus 1, HeLa-CD4/CCR5, read-out: EC50 category, HIV-1 single-round reporter virus assay, category 1/2/3 per Table A1 key
[3] = cytotoxicity, Yes = CC50 above 100 uM, No = not
[4] = Human immunodeficiency virus 1, HeLa-CD4/CCR5, read-out: EC50 Group from TABLE 1, HeLa CD4 CCR5 cells, single-round infectious luciferase reporter virus
[5] = Human immunodeficiency virus 1, HeLa-CD4/CCR5, read-out: EC50 category, initial pseudotype assay, key in Table A1
[6] = HeLa cells, six days with drug, MTT

Compound | EC50 (HIV-1; [2]) [nM] | CC50 > 100 uM (HeLa cells; [3]) | EC50 (HIV-1; [4]) [nM] | also measured
O=C(C(=O)N1CCN(C(=O)c2ccccc2)CC1)c1c[nH]c2c(-n3ccnn3)ccnc12 [Example 206, 1-(4-benzoyl-piperazin-1-yl)-2-(7-[1,2,3]triazol-1-yl-1H-pyrrolo[3,2-b]pyridin-3-yl)-ethane-1,2-dione] | 0.2 to 1000 | Yes | – | EC50 (HIV-1; [1]): < 1000 nM
COc1cnc(-c2ccn(C)n2)c2[nH]cc(C(=O)C(=O)N3CCN(C(=O)c4ccccc4)CC3)c12 [Example 22, 1-benzoyl-4-[(4-methoxy-7-(1-methyl-pyrazol-3-yl)-6-azaindol-3-yl)-oxoacetyl]piperazine] | < 0.2 | No | < 1000 | –
COc1cnc(-n2cccn2)c2[nH]cc(C(=O)C(=O)N3CCN(C(=O)c4ccccc4)CC3)c12 [Example 189, 1-benzoyl-4-[(4-methoxy-7-(1-pyrazolyl)-6-azaindol-3-yl)-oxoacetyl]piperazine] | 0.2 to 1000 | Yes | < 1000 | –
O=C(C(=O)N1CCN(C(=O)c2ccccc2)CC1)c1c[nH]c2c(-n3nccn3)ncc(F)c12 [Example 217] | – | – | < 1000 | EC50 (HIV-1; [5]): 0.2 to 1000 nM; CC50 > 100 uM (HeLa cells; [6]): Yes
O=C(C(=O)N1CCN(C(=O)c2ccccc2)CC1)c1c[nH]c2c(-n3cccc3)ncc(F)c12 [Example 220] | 0.2 to 1000 | Yes | < 1000 | –
COc1cnc(-c2cccn2C)c2[nH]cc(C(=O)C(=O)N3CCN(C(=O)c4ccccc4)CC3)c12 [Example 28, 1-benzoyl-4-[(4-methoxy-7-(11-methyl-pyrrol-2-yl)-6-azaindol-3-yl)oxoacetyl]piperazine] | > 1000 | No | < 1000 | –
CNC(=O)c1ccn(-c2ncc(OC)c3c(C(=O)C(=O)N4CCN(C(=O)c5ccccc5)CC4)c[nH]c23)n1 [Example 276, 1-benzoyl-4-[(4-methoxy-7-(3-methylaminocarbonyl-pyrazol-1-yl)-6-azaindol-3-yl)-oxoacetyl]piperazine] | < 0.2 | Yes | < 1000 | –
COc1cnc(-n2nccn2)c2[nH]cc(C(=O)C(=O)N3CCN(C(=O)c4ccccc4)[C@H](C)C3)c12 [Example 256, (R)-1-benzoyl-2-methyl-4-[(4-methoxy-7-(1,2,3-triazol-2-yl)-6-azaindol-3-yl)-oxoacetyl]piperazine] | – | – | – | EC50 (HIV-1; Human immunodeficiency virus 1, HeLa-CD4/CCR5, read-out: EC50 Group from Table 1, Table 2-1, HeLa CD4 CCR5 cells, single-round luciferase reporter virus): < 1000 nM; EC50 (HIV-1; [5]): 0.2 to 1000 nM; CC50 > 100 uM (HeLa cells; [6]): Yes
COc1cnc(-c2cncnc2)c2[nH]cc(C(=O)C(=O)N3CCN(C(=O)c4ccccc4)CC3)c12 [Example 40, 1-benzoyl-4-[(4-methoxy-7-(pyfimidin-5-yl)-6-azaindol-3-yl)-oxoacetyl]piperazine] | 0.2 to 1000 | No | < 1000 | –
O=C(C(=O)N1CCN(C(=O)c2ccccc2)CC1)c1c[nH]c2c(-n3cccn3)ccnc12 [Example 208, 1-(4-Benzoyl-piperazin-1-yl)-2-(7-pyrazol-1-yl-1H-pyrrolo[3,2-b]pyridin-3-yl)-ethane-1,2-dione] | 0.2 to 1000 | Yes | – | EC50 (HIV-1; [1]): < 1000 nM
Cn1ncnc1-c1ncc(F)c2c(C(=O)C(=O)N3CCN(C(=O)c4ccccc4)CC3)c[nH]c12 [Example 301] | 0.2 to 1000 | Yes | < 1000 | –
COc1ncc(-c2ncc(OC)c3c(C(=O)C(=O)N4CCN(C(=O)c5ccccc5)CC4)c[nH]c23)c(OC)n1 [Example 13, 1-benzoyl-4-[(4-methoxy-7-(2,4-dimethoxy-pyrimidin-5-yl)-6-azaindol-3-yl)-oxoacetyl]piperazine] | 0.2 to 1000 | Yes | < 1000 | –
O=C(C(=O)N1CCN(C(=O)c2ccccc2)CC1)c1c[nH]c2c(-c3cnc[nH]3)ncc(F)c12 [Example 148] | 0.2 to 1000 | Yes | < 1000 | –
CNC(=O)c1ccc(-c2ncc(OC)c3c(C(=O)C(=O)N4CCN(C(=O)c5ccccc5)CC4)c[nH]c23)o1 [Example 94, 1-benzoyl-4-[(4-methoxy-7-(2-methylaminocarbonyl-furan-5-yl)-6-azaindol-3-yl)-oxoacetyl]piperazine] | < 0.2 | Yes | < 1000 | –
C[C@@H]1CN(C(=O)c2ccccc2)CCN1C(=O)C(=O)c1c[nH]c2c(-c3nccs3)ncc(F)c12 [Example 37, 1-benzoyl-3-(R)-methyl-4-[(4-fluoro-7-(thiazol-2-yl)-6-azaindol-3-yl)-oxoacetyl]piperazine] | < 0.2 | No | < 1000 | –
COc1cnc(-n2cc(C)cn2)c2[nH]cc(C(=O)C(=O)N3CCN(C(=O)c4ccccc4)CC3)c12 [Example 191, 1-benzoyl-4-[(4-methoxy-7-(4-methylpyrazol-1-yl)-6-azaindol-3-yl)-oxoacetyl]piperazine] | 0.2 to 1000 | Yes | < 1000 | –
C[C@@H]1CN(C(=O)c2ccccc2)CCN1C(=O)C(=O)c1c[nH]c2c(C(=O)Nc3nccs3)ccnc12 [Example 137, (R)-1-benzoyl-3-methyl-4-[(7-(thiazol-2-yl)aminocarbonyl-4-azaindol-3-yl)-oxoacetyl]piperazine] | – | – | – | EC50 (HIV-1; [1]): < 1000 nM
CCOc1ncc(-c2ccnc3c(C(=O)C(=O)N4CCN(C(=O)c5ccccc5)C[C@H]4C)c[nH]c23)s1 [Example 54, 1-benzoyl-3-(R)-methyl-4-[(7-(2-ethoxy-thiazol-5-yl)-4-azaindol-3-yl)-oxoacetyl]piperazine] | – | – | – | EC50 (HIV-1; [1]): < 1000 nM
C[C@@H]1CN(C(=O)c2ccccc2)CCN1C(=O)C(=O)c1c[nH]c2c(C(=O)NCc3ccc(C(F)(F)F)cc3)ccnc12 [Example 135, (R)-1-benzoyl-3-methyl-4-[(7-(4-trifluoromethylbenzylarmino)carbonyl-4-azaindol-3-yl)-oxoacetyl]piperazine] | – | – | – | EC50 (HIV-1; [1]): < 1000 nM
C[C@@H]1CN(C(=O)c2ccccc2)CCN1C(=O)C(=O)c1c[nH]c2c(-c3cnc(O)nc3)nccc12 [Example 162] | – | – | < 1000 | –
C[C@@H]1CN(C(=O)c2ccccc2)CCN1C(=O)C(=O)c1c[nH]c2c(-c3cccc(NC(=O)C4OC4C(=O)O)n3)nccc12 (stereo in doubt) [Example 297, 3-(6-{3-[2-(4-Benzoyl-2-methyl-piperazin-1-yl)-2-oxo-acetyl]-1H-pyrrolo[2,3-c]pyridin-7-yl}-pyridin-2-ylcarbamoyl)-oxirane-2-carboxylic acid] | – | – | < 1000 | –
CCCSc1ncn(-c2ncc(OC)c3c(C(=O)C(=O)N4CCN(C(=O)c5ccccc5)CC4)c[nH]c23)n1 [Example 289, 1-benzoyl-4-[(4-methoxy-7-(3-propylsulfanyl-[1,2,4]triazol-1-yl)-6-azaindol-3-yl)-oxoacetyl]piperazine] | – | – | < 1000 | –
COc1cnc(-c2cnc(C(=O)NC(C)(C)C)cn2)c2[nH]cc(C(=O)C(=O)N3CCN(C(=O)c4ccccc4)CC3)c12 [Example 15, 1-benzoyl-4-[(4-methoxy-7-(2-(1,1-dimethylethylaminocarbonyl)-pyrazin-5-yl)-6-azaindol-3-yl)-oxoacetyl]piperazine] | – | – | < 1000 | –
CC(=O)c1ccc(-c2ccnc3c(C(=O)C(=O)N4CCN(C(=O)c5ccccc5)CC4)c[nH]c23)s1 [Example 132] | – | – | – | EC50 (HIV-1; [1]): < 1000 nM
